According to the supplement of paper PMC11208160:

Assay: recombinant barcode read abundance after kanamycin selection (control-corrected) (log10(CPM+1)); higher = more efficient recombination; sequences stand for … in AGTGCAGAGAAAATCGGCCAGTTTTCTCTGCCTGCAGTCCGCATGCCGT…AGATTTATGCAGCGGACTGCCTTTCTCCCAAAGTGATAAACCGGACAGTATCATGGACCGGTTTTCCCGGTAATCCGTATTTGCAAGGTTGGTTTCACT; site = the 11-nt target
Experimental: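 Pooled E. coli target-specificity screen for the IS621 bridge recombinase. Each library plasmid pairs an 11-nt target (CT core) with a bridge RNA whose target-binding loop (9-nt LTG + 4-nt RTG) is reprogrammed; the rest of the 177-nt WT IS621 bridge RNA scaffold is fixed. The plasmid is co-electroporated with a WT donor plasmid; recombinase is induced with 0.1 mM IPTG and recombinants are selected on kanamycin. Recombinant barcodes are sequenced, converted to CPM, averaged over two biological replicates and corrected by the unselected control CPM. Molecule = full bridge RNA written as DNA: LTG = specificity nt 1-9, RTG = reverse complement of specificity nt 8-11, in the WT scaffold.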
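Also: IS621 recombinase and bridge RNA in Escherichia coli cells.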

In order of falling “recombinant barcode read abundance (log10)” value:
1. ACCCAGCCTTGGGTTCTAACCTGTTGCGT (site ACCCAGCCTAC)  3.25
2. ACCCATTCTTGGGTTCTAACCTGTTGCGT (site ACCCATTCTAC)  2.29
3. ACCCAGCCTTGGGTTCTAACCTGTTGCGT (site ACCCAGCCTAT)  2.22
4. ACCCTAACTTGGGTTCTAACCTGTTGCCG (site ACCCTAACTCG)  2.03
5. ACCTTACCTTGGGTTCTAACCTGTTGCGT (site ACCTTACCTAC)  1.97
6. ACCATGTCTTGGGTTCTAACCTGTTGCGG (site ACCATGTCTCC)  1.96
7. ACCAGGACTTGGGTTCTAACCTGTTGCCG (site ACCAGGACTCG)  1.94
8. ACCCAAGCTTGGGTTCTAACCTGTTGCCT (site ACCCAAGCTAG)  1.57
9. ACCGACCCTTGGGTTCTAACCTGTTGCCG (site ACCGACCCTCG)  1.47
10. ACCCCTCCTTGGGTTCTAACCTGTTGCCA (site ACCCCTCCTTG)  1.4
11. ACATAGACTTGGGTTCTAACCTGTTGCGC (site ACATAGACTGC)  1.35
12. ACCTGACCTTGGGTTCTAACCTGTTGCCT (site ACCTGACCTAG)  1.31
13. ACCCAAGCTTGGGTTCTAACCTGTTGCCT (site ACCCAAACTAG)  1.14
14. ACATAAGCTTGGGTTCTAACCTGTTGCTA (site ACATAAGCTTA)  1.11
15. ACATGATCTTGGGTTCTAACCTGTTGCCT (site ACATGATCTAG)  1.04
16. ACATAGTCTTGGGTTCTAACCTGTTGCAG (site ACATAGTCTCT)  1.01
17. ACCCAGTCTTGGGTTCTAACCTGTTGCCA (site ACCCAGTCTTG)  0.961
18. ACATAGACTTGGGTTCTAACCTGTTGCGC (site ACACAGACTGC)  0.858
19. ACCAGAGCTTGGGTTCTAACCTGTTGCCT (site ACCAGAGCTAG)  0.823
20. ACCCTGGCTTGGGTTCTAACCTGTTGCCT (site ACCCTGGCTAG)  0.816
21. ACCATCACTTGGGTTCTAACCTGTTGCCT (site ACCATCACTAG)  0.79
22. ACATAGTCTTGGGTTCTAACCTGTTGCTG (site ACATAGTCTCA)  0.71
23. ACCGATTCTTGGGTTCTAACCTGTTGCAT (site ACCGATTCTAT)  0.696
24. ACCAGTACTTGGGTTCTAACCTGTTGCCT (site ACCTGTACTAG)  0.664
25. ACCTTACCTTGGGTTCTAACCTGTTGCGG (site ACCTTACCTCC)  0.617
26. ACATTTCCTTGGGTTCTAACCTGTTGCCT (site ATATTTCCTAG)  0.58
27. ACCCAGCCTTGGGTTCTAACCTGTTGCGT (site ACCCAGCCTAA)  0.534
28. ACCAGAGCTTGGGTTCTAACCTGTTGCCT (site ACTAGAGCTAG)  0.528
29. ACATCTCCTTGGGTTCTAACCTGTTGCCT (site ACATCTCCTAG)  0.503
30. ACCTGGCCTTGGGTTCTAACCTGTTGCCT (site ACCTGGCCTAG)  0.412
31. ACCTTACCTTGGGTTCTAACCTGTTGCGG (site ACCTTACCTAC)  0.37
32. ACCGATTCTTGGGTTCTAACCTGTTGCAT (site GCCGATTCTAG)  0.331
33. ACCCTGGCTTGGGTTCTAACCTGTTGCCT (site ACGCTGGCTAG)  0.326
34. ACAGTGTCTTGGGTTCTAACCTGTTGCGG (site ACATTGTCTCC)  0.324
35. ACCCAGCCTTGGGTTCTAACCTGTTGCGT (site ACCCAGCCTAG)  0.316
36. ACCTGGCCTTGGGTTCTAACCTGTTGCCT (site ACCTGTCCTAG)  0.247
37. ACATCTCCTTGGGTTCTAACCTGTTGCCT (site CCATCTCCTAG)  0.239
38. ACCCCTCCTTGGGTTCTAACCTGTTGCCA (site ACGCCTCCTTG)  0.228
39. ACCTCAACTTGGGTTCTAACCTGTTGCCT (site ACTTCAACTAG)  0.215
40. ACCCTGGCTTGGGTTCTAACCTGTTGCCT (site ACTCTGGCTAG)  0.205
41. ACCTCTTCTTGGGTTCTAACCTGTTGCTA (site CGTCGACCTAT)  0.204
42. ACCCAAGCTTGGGTTCTAACCTGTTGCCT (site ACCCAACCTAG)  0.199
43. ACCCAAGCTTGGGTTCTAACCTGTTGCCT (site ACCCAATCTAG)  0.196
44. ACCTCAACTTGGGTTCTAACCTGTTGCCT (site ACCTCAACTAG)  0.19
45. ACCTCAACTTGGGTTCTAACCTGTTGCCT (site ACGTCAACTAG)  0.188
46. ACATAAGCTTGGGTTCTAACCTGTTGCTA (site GGCGGCTCTAG)  0.18
47. ACCATGTCTTGGGTTCTAACCTGTTGCGG (site TAGTACACTGT)  0.171
48. ACATAGACTTGGGTTCTAACCTGTTGCGC (site ACAGAGACTGC)  0.168
49. ACCTGGCCTTGGGTTCTAACCTGTTGCCT (site ACCTGACCTAG)  0.165
50. ACCTGGCCTTGGGTTCTAACCTGTTGCCT (site ACCTGCCCTAG)  0.147
51. ACCTCTTCTTGGGTTCTAACCTGTTGCTA (site ACCTCTTCTTA)  0.141
52. ACATTTCCTTGGGTTCTAACCTGTTGCCT (site AGATTTCCTAG)  0.138
53. ACCAGAGCTTGGGTTCTAACCTGTTGCCT (site ACAAGAGCTAG)  0.131
54. ACCCTAACTTGGGTTCTAACCTGTTGCCG (site ACCCTATCTAG)  0.129
55. ACCCAGTCTTGGGTTCTAACCTGTTGCCA (site AACCAGTCTCG)  0.12
56. ACCTGGGCTTGGGTTCTAACCTGTTGCCT (site ATCTGGGCTAG)  0.12
57. ACCGTCCCTTGGGTTCTAACCTGTTGCCG (site ACCGTCCCTCG)  0.107
58. ACCGACCCTTGGGTTCTAACCTGTTGCCG (site ACCGTCCCTCG)  0.105
59. ACCATCACTTGGGTTCTAACCTGTTGCCT (site ACAAGCACTAG)  0.103
60. ACATTTCCTTGGGTTCTAACCTGTTGCCT (site ACATTTCCTAG)  0.1
61. ACCTGACCTTGGGTTCTAACCTGTTGCCT (site ACCTGGCCTAG)  0.1
62. ACCAGGACTTGGGTTCTAACCTGTTGCCG (site GAGCCTCCTAT)  0.091
63. ACATAGACTTGGGTTCTAACCTGTTGCGC (site ACAAAGACTGC)  0.084
64. ACATTTCCTTGGGTTCTAACCTGTTGCCT (site AAATTTCCTAG)  0.0832
65. ACATCTCCTTGGGTTCTAACCTGTTGCCT (site GCATCTCCTAG)  0.0778
66. ACCCTGGCTTGGGTTCTAACCTGTTGCCT (site ACACTGGCTAG)  0.0738
67. ACCTGACCTTGGGTTCTAACCTGTTGCCT (site ACCTGTCCTAG)  0.0737
68. ACCAGTACTTGGGTTCTAACCTGTTGCCT (site ACCCGTACTAG)  0.0724
69. ACCTCAACTTGGGTTCTAACCTGTTGCCT (site ACATCAACTAG)  0.0721
70. ACCTGGGCTTGGGTTCTAACCTGTTGCCT (site ACCTGGGCTAG)  0.0605
71. ACCAGTACTTGGGTTCTAACCTGTTGCCT (site ACCAGTACTAG)  0.0544
72. ACCAGAGCTTGGGTTCTAACCTGTTGCCT (site ACGAGAGCTAG)  0.0525
73. ACATCTCCTTGGGTTCTAACCTGTTGCCT (site TCATCTCCTAG)  0.0426
74. ACATAGTCTTGGGTTCTAACCTGTTGCTG (site ACTTAGTCTTA)  0.0401
75. ACCTGGGCTTGGGTTCTAACCTGTTGCCT (site AACTGGGCTAG)  0.0365
76. ACCGTCCCTTGGGTTCTAACCTGTTGCCG (site ACCGACCCTCG)  0.0364
77. ACATAGTCTTGGGTTCTAACCTGTTGCAG (site CCTTAGTCTCT)  0.0322
78. ACCCATTCTTGGGTTCTAACCTGTTGCGT (site TAGATAACTCA)  0.0317
79. ACCTGACCTTGGGTTCTAACCTGTTGCCT (site ACCTGCCCTAG)  0.0303
80. ACCAGTACTTGGGTTCTAACCTGTTGCCT (site ACCGGTACTAG)  0.0115
81. ACATGATCTTGGGTTCTAACCTGTTGCCT (site ACAATATCTAG)  0.0106
82. ACCTGGGCTTGGGTTCTAACCTGTTGCCT (site AGCTGGGCTAG)  0
